Key:
Test in all cases: relative viability (nuclei count vs DMSO), 5 days (fraction); higher = more cells survive
QS11 + Linsitinib = compound: C1CC2=C(C1)C=C(C=C2)OC3=NC(=C4C(=N3)N(C=N4)CC5=CC=C(C=C5)C6=CC=CC=C6)N[C@@H](CC7=CC=CC=C7)CO [QS11] + C[C@]1(O)C[C@@H](c2nc(-c3ccc4ccc(-c5ccccc5)nc4c3)c3c(N)nccn32)C1 [Linsitinib] (partner 1 µM)
How it was run: (§1)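 Relative viability divides the nuclei count in treated wells by that in vehicle wells. Lung cancer cell lines were seeded in 1536-well plates, dosed by pin tool the next day, and fixed and stained after 5 days in one step with final 0.05% Triton X-100, 1% formaldehyde and 1 ug/ml Hoechst. Dosing was a single drug or a fixed anchor-drug dose plus five library-drug doses (not always all listed) in √10 steps, and values are medians of duplicate plates imaged at 4×.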

AZ628 + OSI-027 = compound: CC1=C(C=C(C=C1)NC(=O)C2=CC(=CC=C2)C(C)(C)C#N)NC3=CC4=C(C=C3)N=CN(C4=O)C [AZ628] + COc1cccc2cc(-c3nc([C@H]4CC[C@H](C(=O)O)CC4)n4ncnc(N)c34)[nH]c12 [OSI-027] (partner 0.5 µM)
How it was run: as §1

[1] = compound: C[As](C)SC[C@H](NC(=O)CC[C@H](N)C(=O)O)C(=O)NCC(=O)O [Darinaparsin] + CC(=O)c1c(C)c2cnc(Nc3ccc(N4CCNCC4)cn3)nc2n(C2CCCC2)c1=O [Palbociclib] (partner 0.5 µM)
How it was run: as §1

AZ628 + Phenformin = compound: CC1=C(C=C(C=C1)NC(=O)C2=CC(=CC=C2)C(C)(C)C#N)NC3=CC4=C(C=C3)N=CN(C4=O)C [AZ628] + N=C(N)NC(=N)NCCc1ccccc1 [Phenformin] (partner 250 µM)
How it was run: as §1

LCLC-97TM1
relative viability (QS11 + Linsitinib; first compound 0.08 µM): 0.15
relative viability (QS11 + Linsitinib; first compound 0.253 µM): 0.17
relative viability (QS11 + Linsitinib; first compound 0.8 µM): 0.233
relative viability (QS11 + Linsitinib; first compound 2.53 µM): 0.237
relative viability (QS11 + Linsitinib; first compound 8 µM): 0.293
relative viability (AZ628 + OSI-027; first compound 0.08 µM): 0.577
relative viability (AZ628 + OSI-027; first compound 0.253 µM): 0.328
relative viability (AZ628 + OSI-027; first compound 0.8 µM): 0.315
relative viability (AZ628 + OSI-027; first compound 2.53 µM): 0.327
relative viability (AZ628 + OSI-027; first compound 8 µM): 0.198
relative viability ([1]; first compound 0.08 µM): 0.317
relative viability ([1]; first compound 0.8 µM): 0.2
relative viability ([1]; first compound 2.53 µM): 0.237
relative viability ([1]; first compound 8 µM): 0.251
relative viability (AZ628 + Phenformin; first compound 0.08 µM): 0.55
relative viability (AZ628 + Phenformin; first compound 0.253 µM): 0.459
relative viability (AZ628 + Phenformin; first compound 0.8 µM): 0.421
relative viability (AZ628 + Phenformin; first compound 2.53 µM): 0.457
relative viability (AZ628 + Phenformin; first compound 8 µM): 0.308

From the supplement of paper PMC10307832
